# Results reported in US20130158059A1, “NILOTINIB SALTS AND CRYSTALLINE FORMS THEREOF” (TEVA PHARMACEUTICAL INDUSTRIES LTD., priority 2010, published 2013).
# Where a name gives a salt, the structure may show the parent alone.
# Tests used:
# [1] = Thermal polymorphic stability (heating of the crystalline form); format: physicochemical; settings: heated up to 200° C.
# Text: As discussed above, Nilotinib L-tartrate Form IV has advantageous properties.
# [2] = Polymorphic stability on exposure to ethanol or methanol vapors; format: physicochemical; settings: exposed to ethanol or methanol vapors, about RT, about 1 hour to about 24 hours
# Text: As discussed above, Nilotinib HBr form XI has advantageous properties. In particular, the crystalline Nilotinib HBr form XI of the present invention is polymorphically stable. […] This stability is an advantage for the production, storage and processing of pharmaceuticals comprising Nilotinib HBr.
Compound,thermal polymorphic stability (conversion to other forms) [1],polymorphic stability (conversion to other forms of Nilotinib HBr) [2]
Nilotinib L-tartrate [Nilotinib L-tartrate Form IV],does not convert to other forms,
"Cc1cn(-c2cc(NC(=O)c3ccc(C)c(Nc4nccc(-c5cccnc5)n4)c3)cc(C(F)(F)F)c2)cn1 [Nilotinib HBr form XI, Nilotinib hydrobromide]",,does not convert to other forms of Nilotinib HBr
